Consider 2 compounds from patent US11426367B2, “Methods of treating substance abuse” (Perception Neuroscience, Inc., priority 2018, dated 2022).

Holding throughout (type): in vivo
Series [1] relates to social defeat stress mice. The series can be described thus: Forced swimming test (FST), social defeat stress model. The conditions noted are these: 10 mg/kg i.p. The procedure:
A social defeat stress model of depression was prepared by bringing C57/B6 male mice into contact with ICR male mice (large aggressive mice) for 10 consecutive days to apply a stress called a “social defeat stress” in accordance with the previous report (Non Patent Literature 19). […] Specifically, an increase in immobility time was found in each of a tail suspension test (TST) and a forced swimming test (FST).
The preparation of the animal model of depression and the administration of the agent were specifically performed as described below (FIG. 3A). Male C57/B6 mice (7-week-old, Japan SLC, Inc., Hamamatsu, Japan) and ICR mice (9-week-old, Japan SLC, Inc., Hamamatsu, Japan) were used. The mice were given free access to water and feed. A social defeat stress was applied by housing one C57/B6 mouse with one ICR mouse for 10 days.
The antidepressant effects of the agent were investigated by behavioral tests such as the TST, the PST, the LMT, and a 1% sucrose preference test (SPT) (FIG. 3A). The 1% sucrose preference test (SPT) was performed on 1 day and 6 days after the injection of ketamine. Each of the TST and the PST was performed on 2 days and 7 days after the injection of ketamine. The TST was performed as described below. First, the mice were taken out from cages, and then a small piece of an adhesive tape was bonded onto a portion approximately 2 cm away from the tip of the tail of the mice. A small hole was opened in the small piece, and the mice were each fixed upside down on a hook through the small hole. The immobility time of each mouse was recorded for 10 minutes. Mice were considered immobile only when they hung passively and completely motionless. The immobility time increases in a depressive state. The PST was performed as described below. First, the mice were placed individually in a cylinder (diameter: 23 cm; height: 31 cm) containing 15 cm of water, maintained at 22 to 24 deg C. The mice were tested in an automated forced-swimming apparatus using SCANET MV-40 ([…] Co., Ltd., Toyama, Japan). The immobility time was calculated as a value obtained by subtracting active time from total time, using the analysis software of the apparatus. Cumulative immobility time was recorded over 6 minutes during a test period. The LMT was performed as described below. First, the mice were placed in experimental cages (length×width×height: 560×560×330 mm). The locomotor activity of the mice was counted with SCANET MV-40, and the cumulative exercise of the mice was recorded for 60 minutes. The cages were cleaned between testing session. The immobility time increases in a depressive state. […] A spine density was quantitatively evaluated by observation with a KEYENCE microscope (BZ-9000, Osaka, Japan).

Series [2] concerns DEX-treated mice. The series can be described thus: Locomotion test (LMT), neonatal dexamethasone exposure model. Conditions: juvenile DEX-treated mice, 10 mg/kg i.p., day after injection. The procedure: A new animal model of depression was prepared by exposing mice neonatally to dexamethasone (hereinafter abbreviated as DEX). […] The mouse model was prepared and reported only recently by the inventors of the present application and their collaborators (Non Patent Literature 18). […] Further, alterations were found in levels of amino acids (glutamate, glutamine, glycine, D-serine, and L-serine) in mouse brains after the neonatal DEX exposure (Non Patent Literature 18). Those amino acids are known to be associated with NMDA receptor mediated neurotransmission. Thus, it is conceivable that alterations in glutamatergic transmission via the NMDA receptor after the neonatal DEX exposure may be involved in the depression-like behavior in the juvenile mice and the adult mice (Non Patent Literature 18). […]
The antidepressant effects of the agent were investigated for juvenile mice by behavioral tests such as the TST, the PST, the LMT, and a 1% sucrose preference test (SPT) (FIG. 2A). […] The immobility time of each mouse was recorded for 10 minutes. […] The immobility time was calculated as a value obtained by subtracting active time from total time, using the analysis software of the apparatus. Cumulative immobility time was recorded over 6 minutes during a test period. […] The locomotor activity of the mice was counted with SCANET MV-40, and the cumulative exercise of the mice was recorded for 60 minutes. […]

The test system of series [3] is Control C57/B6 mice. As to the kind of experiment: Locomotion-enhancing effect in control mice. The procedure:
An effect of ketamine on the locomotion of mice was tested using SCANET MV-40 ([…] Co., Ltd., Toyama, Japan). Specifically, the locomotion was measured for a total of 180 minutes, i.e., 60 minutes before injection to 120 minutes after injection, and calculated as a locomotion per 10 minutes. The statistical analysis of the results of the locomotion was performed by repeated one-way analysis of variance (repeated one-way ANOV A), followed by a least significant difference test (LSD test).

For `CN[C@@]1(c2ccccc2Cl)CCCCC1=O.Cl` [R(−)-ketamine], the results for the “immobility time in the FST” value in series [1] (2 days after injection) and in series [1] (7 days after injection) were “markedly reduced the immobility time” and “significantly reduced the immobility time”, respectively. Further, the “locomotion in the LMT” value in series [2] is on record as “no difference in locomotion”. Besides, the locomotion after injection entry in series [3] (control mice, 5, 10 or 20 mg/kg) is listed as “did not affect the locomotion”.

For the compound `CN[C@]1(c2ccccc2Cl)CCCCC1=O` [S(+)-ketamine], the “immobility time in the FST” value is “markedly reduced the immobility time” in series [1] (2 days after injection) and “significantly reduced the immobility time” in series [1] (7 days after injection). Further, in series [2], the “locomotion in the LMT” value was “no difference in locomotion”. Further, in series [3] (control mice, 10 mg/kg or 20 mg/kg), the “time after injection at which locomotion returned to a normal value” was 30 min. Further, the locomotion after injection result in series [3] (control mice, 10 mg/kg or 20 mg/kg, 10 minutes and 20 minutes after injection, vs saline) is on record as “significant increase in locomotion”.
